Patent US11793782B2, “Therapeutic agents for neurodegenerative diseases” (priority 2017, dated 2023)

Key:
[1] = test system: Mucopolysaccharidosis Type IIIB (MPS IIIB) patient fibroblasts; assay: Lysosomal volume via LysoTracker, MPS IIIB fibroblasts; assay type: cell-based, human; conditions: 1 mM, 6 days
[2] = test system: Npc1−/− and Npc1+/+ mice; assay: Gait analysis (CatWalk), NPC mouse study; assay type: in vivo; conditions: 0.1 g/kg from weaning, eight weeks of age
Description: Separate groups of Npc1^−/− and Npc1^+/+ mice were left untreated, as controls. Gait analysis was performed on mice at eight weeks of age using a CatWalk®15.0 system according to manufacturer's instructions (Noldus, Nottingham, UK). Five runs were recorded per animal. CatWalk® parameters measured were: • 1. Stand Mean: average duration (s) of paws in contact with glass plate; • 2. Step Cycle: duration (s) between two consecutive contacts of the same paw; • 3. Duty Cycle: percentage of time paws in contact with plate compared with time to complete a step cycle; • 4. Step Sequence (AB): percentage of time spent walking in LF-RH-RF-LH alternating pattern (LF: left front; RH: right hind; RF: right front; LH left hind); • 5. Cadence: step per seconds in a trial; • 6. Diagonal Support: percentage of time with simultaneous contact of diagonal paws with the glass plate (RF&LH or RH&LF). Motor Function Analysis

[3] = test system: vertigo patients; conditions: used in France to treat acute vertigo since 1957; cited from earlier work
[4] = test system: microtubule-associated protein 1A/1B-light chain 3-phosphatidylethanolamine conjugate (LC3-II); assay: LC3-II levels in NPC1−/− mice; assay type: in vivo, mouse; conditions: 0.1 g/kg body weight daily from 3 weeks of age, sacrificed at 8 weeks
Description: The Niemann-Pick Disease Type C (NPC) mouse model shares a number of pathological features with Alzheimer's disease (AD) as described herein. […] Mice were sacrificed at 8 weeks of age. Levels of amyloid precursor protein C-terminal fragments (APP-CTFs) were evaluated relative to total amyloid precursor protein (APP) levels in the cerebellum for wild type, untreated wild type NPC1^−/− mice, and AL-treated wild type NPC1^−/− mice. Levels of microtubule-associated protein 1A/1B-light chain 3-phosphatidylethanolamine conjugate (LC3-II) were also evaluated relative to levels of tubulin loading control for wild type, untreated wild type NPC1^−/− mice, and AL-treated wild type NPC1^−/− mice.

[5] = test system: Mucopolysaccharidosis Type VII (MPS VII) patient fibroblasts; assay: Lysosomal volume via LysoTracker, MPS VII fibroblasts; assay type: cell-based, human; conditions: 1 mM, 6 days
[6] = test system: GM1 Gangliosidosis patient; assay: Case study, GM1 Gangliosidosis patient; assay type: in vivo, human; conditions: after one month
Description: The patient in this case study was a person who was genetically diagnosed with GM1 Gangliosidosis and who was not able to stand or walk by themself, was very limited in daily activities (eating, washing, dressing themself was not possible), and had ocular movement disorder, anarthria, and distinct problems in cognitive function and concentration (neurological examination was not possible).
The patient was started on therapy with acetyl-leucine at a dose of 1.5 g per day for the first week, followed by a dose of 3 g per day for the second week onwards.

[7] = test system: patients with cerebellar ataxia; conditions: cited from earlier work
[8] = test system: downbeat nystagmus patients; assay: Case studies, downbeat nystagmus patients; assay type: in vivo, human
Description: The patient was diagnosed with downbeat nystagmus: the patient was severely impaired by blurred vision (oscillopsia) due to the nystagmus, and experienced difficulties while reading and writing. The patient's visual acuity was: right 0.75, left 0.67, binocular 0.83, and the downbeat nystagmus was documented by video-oculography. […] The patient could partially suppress the nystagmus by visual fixation, as evaluated using a target center (dot presented in the center of a display for 30 seconds, FIG. 13A) and in complete darkness using goggles covered with special glasses for 45 seconds (FIG. 13B). The results (median of slow phase velocity, SPV) were as follows: Target Center-horizontal: −0.02°/s, vertical: 2.41°/s; Complete Darkness-horizontal: 0.05°/s, vertical: 3.27°/s (FIG. 13C).

[9] = test system: fibroblast cell line from an NPC patient; assay: Relative lysosomal volume via LysoTracker, NPC fibroblasts; assay type: cell-based, human; conditions: 1 mM
Description: A fibroblast cell line from an NPC patient was treated for 3 days with N-acetyl-DL-leucine (1 mM) and relative lysosomal volume was quantified via LysoTracker, a fluorescent dye that accumulates in acidic organelles. Increased LysoTracker fluorescence is indicative of an increase in lysosomal size and/or number, and is a hallmark of NPC cells.

[10] = downbeat nystagmus Patient 1, approximately 14 weeks after starting
[11] = downbeat nystagmus Patient 2, on treatment, Complete Darkness
[12] = downbeat nystagmus Patient 2, on treatment, Target Center

CC(=O)NC(CC(C)C)C(=O)O (racemic) [acetyl-DL-leucine]
LysoTracker fluorescence relative to untreated disease fibroblasts [1]: statistically significant reduction in LysoTracker fluorescence
Gait vs untreated littermates [2]: significantly improved gait
Safety profile [3]: excellent safety profile
LC3-II levels relative to tubulin loading control [4]: lowering of LC3-II
LysoTracker fluorescence relative to untreated disease fibroblasts [5]: trend in reducing LysoTracker fluorescence
SARA ([6]; 3 g per day, baseline 35/40): 35/40
Clinical observation [6]: stable general condition, increased gait (more fluent), and stable stance in natural position
mRDS ([6]; baseline 15): 16
EQ-5D-5L visual scale ([6]; baseline 50): 60
PET study in patients with ataxia ([7]; Becker-Bense et al. (2015)): increased metabolism in the midbrain and lower brainstem in responders
Cerebellar ataxia, another case series ([7]; Pelz et al. (2015)): did not find benefit
Quantitative gait analysis ([7]; Schniepp et al. (2015)): improved temporal gait variability
Cerebellar ataxia, case series ([7]; Strupp et al. (2013)): symptomatic improvement of cerebellar ataxia
Effect of temporary suspension of the medication ([8]; downbeat nystagmus Patient 1): considerable deterioration
Patient-reported benefit ([8]; downbeat nystagmus Patient 1, 5 gram per day, after 10 days): significant benefit
Nystagmus (clinical examination) [8, 10]: reduction of the nystagmus
Posturography [8, 10]: reduction of postural sway
Visual acuity, left ([8]; downbeat nystagmus Patient 1, approximately 14 weeks after starting, before 0.67): 1.0
Visual acuity, right ([8]; downbeat nystagmus Patient 1, approximately 14 weeks after starting, before 0.75): 0.83
Visual acuity, binocular ([8]; downbeat nystagmus Patient 1, approximately 14 weeks after starting, before 0.83): 1
Side-effects ([8]; downbeat nystagmus Patient 1, continued treatment at 5 gram per day): no side-effects
Clinical observation ([8]; downbeat nystagmus Patient 2, 5 g/day): improvement of gait
Median of slow phase velocity (SPV), horizontal [8, 11]: 0.05 °/s
Median of slow phase velocity (SPV), vertical [8, 11]: 3.27 °/s
Median of slow phase velocity (SPV), horizontal [8, 12]: −0.02 °/s
Median of slow phase velocity (SPV), vertical [8, 12]: 2.41 °/s
Maximal gait velocity ([8]; downbeat nystagmus Patient 2, on treatment, increase from 122): 155 cm/s
LysoTracker fluorescence (lysosomal volume) ([9]; fibroblasts from NPC patient of mild clinical severity): significant decrease in LysoTracker fluorescence
LysoTracker fluorescence (lysosomal volume) ([9]; fibroblasts from additional NPC patients of variable clinical severity, 72 hours): replicated
